From patent US20230380460A1 (priority 2020, published 2023)

Key:
Assay type in all cases: cell-based
[1] = test system: total flora (total plate count); experiment: Spoilage analysis of cooked emulsified sausage: total plate count; conditions: cooked emulsified sausage during storage
Procedure: (§1) A part was inoculated on surface with Listeria monocytogenes for the challenge test and the other part was kept safe for shelf life microbiological study as well as organoleptic and physical characterization. Cooked emulsified sausages were then stored in vacuum packaging.
(§2) Microbiological analysis was performed according to current standard EC regulation 2073/2005, at d0 after packaging, several days during the storage (from D4 to D7 or D14 according to the studies).
(§3) For cooked emulsified sausage, 14 days of shelf-life with 7 days of storage at 4° C. and 7 days at 8° C., to simulate a break in the cold chain (standardized method NF V01-003).
(§4) Group of microorganisms counts performed are listed below: • Total plate count (NF EN ISO 4833-1), • Lactic acid bacteria (NF ISO 15214) both mesophilic and psychotrophic • Enterobacteriaceace (ISO 21528-2), • Pseudomonas sp. (EN ISO 13720), • Brochothrix thermosphacta • Anaerobic enumeration of sulfito-reducing bacteria (NF V08-061), • Challenge test Listeria monocytogenes (NF-EN ISO 11290-2). • Challenge test Salmonella (NF-EN ISO 6579-1).

lactic flora = experiment: Spoilage analysis of cooked emulsified sausage: lactic flora; conditions: cooked emulsified sausage during storage
Procedure: as §1, §2, §3, §4

Listeria monocytogenes = conditions: fresh ground sausage, d8

lactate
Growth of total flora [1]: normal growth | Growth of lactic flora (lactic flora): normal growth | Δ log cfu/g of Listeria growth versus untreated control (Listeria monocytogenes): −0.9 log cfu/g
